Source: PubChem BioAssay (NCI)
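Each compound was tested at five concentrations against cells in 96-well plates for 48 hours. The concentration for 50% growth inhibition is given as GI50. At the TGI there is no net growth.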

Assays:
Experiment in all cases: growth of human tumour cells (NCI), 48 h; in the data active = GI50 below about 0.43 µM; inactive = the rest
MDA-MB-231 breast = test system: MDA-MB-231 breast
NCI/ADR-RES ovarian = test system: NCI/ADR-RES ovarian
NCI-H522 lung = test system: NCI-H522 lung
SF-539 CNS = test system: SF-539 CNS
SF-268 CNS = test system: SF-268 CNS
DMS 273 small cell lung = test system: DMS 273 small cell lung
MCF7 breast = test system: MCF7 breast
ACHN renal = test system: ACHN renal
HCT-15 colon = test system: HCT-15 colon
MDA-MB-435 = test system: MDA-MB-435
NCI-H460 lung = test system: NCI-H460 lung
LXFL 529 NSCLC = test system: LXFL 529 NSCLC
HS 578T breast = test system: HS 578T breast
RXF 393 renal = test system: RXF 393 renal
COLO 205 colon = test system: COLO 205 colon
HT29 colon = test system: HT29 colon
XF 498 CNS = test system: XF 498 CNS
SF-295 CNS = test system: SF-295 CNS
EKVX NSCLC = test system: EKVX NSCLC
OVCAR-5 ovarian = test system: OVCAR-5 ovarian
A498 renal = test system: A498 renal
SR leukemia = test system: SR leukemia
OVCAR-4 ovarian = test system: OVCAR-4 ovarian
SN12C renal = test system: SN12C renal
SK-MEL-5 melanoma = test system: SK-MEL-5 melanoma
SK-OV-3 ovarian = test system: SK-OV-3 ovarian
HCT-116 colon = test system: HCT-116 colon
DLD-1 colon = test system: DLD-1 colon
LOX IMVI melanoma = test system: LOX IMVI melanoma
NCI-H23 lung = test system: NCI-H23 lung
DMS 114 small cell lung = test system: DMS 114 small cell lung
RPMI-8226 leukemia = test system: RPMI-8226 leukemia
PC-3 prostate = test system: PC-3 prostate
UACC-62 melanoma = test system: UACC-62 melanoma
HL-60(TB) leukemia = test system: HL-60(TB) leukemia
BT-549 breast = test system: BT-549 breast
UACC-257 melanoma = test system: UACC-257 melanoma
OVCAR-8 ovarian = test system: OVCAR-8 ovarian
SNB-75 CNS = test system: SNB-75 CNS
OVCAR-3 ovarian = test system: OVCAR-3 ovarian
786-0 renal = test system: 786-0 renal
CAKI-1 renal = test system: CAKI-1 renal
HOP-18 NSCLC = test system: HOP-18 NSCLC
TK-10 renal = test system: TK-10 renal
MALME-3M melanoma = test system: MALME-3M melanoma
U251 CNS = test system: U251 CNS
M19-MEL melanoma = test system: M19-MEL melanoma
UO-31 renal = test system: UO-31 renal
SK-MEL-28 melanoma = test system: SK-MEL-28 melanoma

O=C1C=CC=C[C@@H]2C(C3OCCO3)CC[C@H]12.[C-]#[O+].[C-]#[O+].[C-]#[O+].[Fe] (stereo partly specified)
> 95.4 µM: TGI (HCT-15 colon)
> 78.4 µM: TGI (UO-31 renal)
41.5 µM: TGI (HCT-116 colon)
inactive: GI50 (MDA-MB-231 breast) > 100 µM | GI50 (NCI/ADR-RES ovarian) > 100 µM | GI50 (NCI-H522 lung) 29 µM | GI50 (SF-539 CNS) 44.6 µM | GI50 (SF-268 CNS) > 60 µM | GI50 (DMS 273 small cell lung) 30.6 µM | GI50 (MCF7 breast) 37.3 µM | GI50 (ACHN renal) 34.8 µM | GI50 (HCT-15 colon) 55.7 µM | GI50 (MDA-MB-435) 31.3 µM | GI50 (NCI-H460 lung) 45.2 µM | GI50 (LXFL 529 NSCLC) 15.6 µM | GI50 (HS 578T breast) > 100 µM | GI50 (RXF 393 renal) 23.4 µM | GI50 (COLO 205 colon) 49.9 µM | GI50 (HT29 colon) 42.6 µM | GI50 (XF 498 CNS) > 100 µM | GI50 (SF-295 CNS) 44.4 µM | GI50 (EKVX NSCLC) > 100 µM | GI50 (OVCAR-5 ovarian) > 100 µM | GI50 (A498 renal) > 100 µM | GI50 (SR leukemia) 18.4 µM | GI50 (OVCAR-4 ovarian) > 47.9 µM | GI50 (SN12C renal) 76.3 µM | GI50 (SK-MEL-5 melanoma) > 100 µM | GI50 (SK-OV-3 ovarian) > 96 µM | GI50 (HCT-116 colon) 18.9 µM | GI50 (DLD-1 colon) 19.8 µM | GI50 (LOX IMVI melanoma) 1.09 µM | GI50 (NCI-H23 lung) > 52.8 µM | GI50 (DMS 114 small cell lung) 20.1 µM | GI50 (RPMI-8226 leukemia) 26.8 µM | GI50 (PC-3 prostate) 98.9 µM | GI50 (UACC-62 melanoma) > 59.8 µM | GI50 (BT-549 breast) 51.4 µM | GI50 (UACC-257 melanoma) 98.5 µM | GI50 (OVCAR-8 ovarian) 24.8 µM | GI50 (SNB-75 CNS) > 100 µM | GI50 (OVCAR-3 ovarian) 40.6 µM | GI50 (786-0 renal) > 69.3 µM | GI50 (CAKI-1 renal) 93.3 µM | GI50 (HOP-18 NSCLC) > 52.8 µM | GI50 (TK-10 renal) > 100 µM | GI50 (MALME-3M melanoma) 27.9 µM | GI50 (U251 CNS) 44.7 µM | GI50 (M19-MEL melanoma) 19.9 µM | GI50 (UO-31 renal) 42.7 µM
> 82.4 µM: TGI (RPMI-8226 leukemia)
77.2 µM: TGI (SF-539 CNS)
45.2 µM: TGI (DMS 114 small cell lung)
> 83.5 µM: TGI (SR leukemia)
46 µM: TGI (NCI-H522 lung)
65.1 µM: TGI (OVCAR-8 ovarian)
67 µM: TGI (RXF 393 renal)
> 100 µM: TGI (MDA-MB-231 breast) | TGI (NCI/ADR-RES ovarian) | TGI (SF-268 CNS) | TGI (DMS 273 small cell lung) | TGI (MCF7 breast) | TGI (MDA-MB-435) | TGI (NCI-H460 lung) | TGI (HS 578T breast) | TGI (HT29 colon) | TGI (XF 498 CNS) | TGI (SF-295 CNS) | TGI (EKVX NSCLC) | TGI (OVCAR-5 ovarian) | TGI (A498 renal) | TGI (SN12C renal) | TGI (SK-MEL-5 melanoma) | TGI (SK-OV-3 ovarian) | TGI (PC-3 prostate) | TGI (UACC-62 melanoma) | TGI (HL-60(TB) leukemia) | TGI (BT-549 breast) | TGI (UACC-257 melanoma) | TGI (SNB-75 CNS) | TGI (OVCAR-3 ovarian) | TGI (786-0 renal) | TGI (CAKI-1 renal) | TGI (TK-10 renal)
29.4 µM: TGI (LXFL 529 NSCLC)
> 46.9 µM: TGI (SK-MEL-28 melanoma)
> 71.9 µM: TGI (OVCAR-4 ovarian)
> 83.7 µM: TGI (NCI-H23 lung)
45 µM: TGI (DLD-1 colon)
5.66 µM: TGI (LOX IMVI melanoma)
> 65.6 µM: TGI (ACHN renal)
> 85.1 µM: TGI (HOP-18 NSCLC)
37 µM: TGI (M19-MEL melanoma)
> 70.4 µM: TGI (COLO 205 colon)
62.3 µM: TGI (MALME-3M melanoma)
> 82.5 µM: TGI (U251 CNS)
